Assay results as given in patent US4898887A, “Compounds and compositions having anti-inflammatory and analgesic activity” (The Procter & Gamble Company, priority 1986, dated 1990).
Like-named read-outs stand apart in the source and are kept apart here.

Columns and labels:
[1] = test system: analgesia and inflammation; experiment: intramuscular administration to human: analgesia and inflammation; type: in vivo; conditions: Example III, ethyl oleate/benzyl alcohol, 1.5 ml in 65 kg human
Description: The octadecatrienamide is dissolved in the solution combining ethyl oleate and benzyl alcohol, sealed into airtight 5 ml ampoules, and sterilized by autoclaving.
A composition for parenteral administration of N-vanillyl-5Z,8Z,11Z,14Z-eicosatetraenamide is prepared by a substantially similar method.

[2] = test system: analgesia and inflammation; experiment: oral administration to human: analgesia and inflammation; type: in vivo
Description: A composition for oral administration of N-vanillyl-5Z,8Z,11Z,14Z-eicosatetraenamide is prepared by a substantially similar method.

[3] = test system: analgesia and inflammation; experiment: topical administration to human: analgesia and inflammation; type: in vivo; conditions: Example VI, 0.4 ml to 80 cm^2 of forearm of 60 kg human
Description: The octadecatrienamide is melted to a liquid with slight warming and combined with the other ingredients.
A composition for topical application of N-vanillyl-5Z,8Z,11Z,14Z-eicosatetraenamide is prepared by a substantially similar method.

[4] = test system: croton oil-induced mouse ear inflammation; experiment: croton oil-induced mouse ear inflammation test; type: in vivo, mouse (adult male Cox ICR mice); conditions: 25 μl of 1% ethanolic solution on left ear, 20-28 h and 5-6 h prior to sacrifice; 2% croton oil 4 h prior to sacrifice
Description: Two trienamide compositions were tested for anti-inflammatory activity using the croton oil-induced mouse ear inflammation test.
Adult male Cox ICR mice, 20-30 g, were treated on the left ear at 20-28 hours prior to sacrifice and a second time 5-6 hours prior to sacrifice with 25 μl of a 1% ethanolic solution of the test compound. Four hours prior to sacrifice both ears were treated with 25 μl of a 2% solution of croton oil in acetone. Each animal was then placed in individual cages and given food and water ad lib. Animals were sacrificed by cervical dislocation and both ears removed. From these ears, 0.38 cm^2 punch biopsies were taken from the central portion and each biopsy weighed on a Cahn electrobalance.
For each test substance, a group of 10 animals was used. Control groups either had both ears treated with croton oil or just the right ear. It was experimentally determined that a value of 11.0 mg could be assumed for a punch biopsy from a normal untreated ear and still be within the experimental error of the test. Therefore, for the calculation of percent inhibition, a value of 11.0 mg was used. [formula]
This calculation is valid only when no systemic effects are noted as evidenced by comparison of right ears of treated and control groups.
Statistical signifance at the 95% confidence level was determined by the paired test.

[5] = test system: phenylbenzoquinone-induced writhing; experiment: phenylquinone writhing assay; type: in vivo, mouse (male mice); conditions: oral gavage 3 h before i.p. 0.2% phenylbenzoquinone; 10 minute period; vehicle control 17.4 ± 1.7
Description: Three trienamide composition were tested for analgesic and anti-inflammatory activity using the phenylquinone writhing assay.
Groups of eight male mice weighing between approximately 25 and 30 g were dosed orally by gavage with the composition to be tested. Identical groups of mice were dosed with control compositions. Three hours after this initial administration, the mice were injected intraperitoneally with a 0.2% solution of phenylbenzoquinone in aqueous ethanol. The ability of the analgesic compositions tested to relieve the discomfort induced was measured by counting the number of abdominal contractions, or "writhes", occurring in each mouse during a 10 minute period beginning 10 minutes after injection of the phenylbenzoquinone solution.

[6] = test system: threshold for the perception of pain (hot plate, 55° C.); experiment: Rodent Hot Plate Test (rats, VL)
[7] = test system: analgesia and inflammation; experiment: analgesic and anti-inflammatory activity (general statement); type: in vivo
[8] = toxicity and narcotic side effects (general statement); type: in vivo
[9] = test system: threshold for the perception of pain (hot plate, 55° C.); conditions: unless administered in toxic quantities; cited from earlier work
[10] = test system: analgesia and inflammation; conditions: background, literature on capsaicin; cited from earlier work
[11] = Example IV, sesame oil soft gelatin capsules, two capsules of 225 mg in 60 kg human
[12] = Example V, syrup, one teaspoon in 70 kg adult human

Question: For `CCCCC/C=C\C/C=C\C/C=C\C/C=C\CCCC(=O)NCc1ccc(O)c(OC)c1` [N-vanillyl-5Z,8Z,11Z,14Z-eicosatetraenamide], which analgesia [1] is on record?
Answer: produces analgesia

Question: And the reduction of inflammation [1]?
Answer: reduces inflammation

Question: What about the analgesia [2, 11] of the same molecule?
Answer: produces analgesia

Question: And the reduction of inflammation [2, 11]?
Answer: reduces inflammation

Question: What about the analgesia [2, 12] of the same molecule?
Answer: produces analgesia

Question: And the reduction of inflammation [2, 12]?
Answer: reduces inflammation

Question: What about the analgesia [3] of the same molecule?
Answer: produces analgesia

Question: What about the reduction of inflammation [3] of the same molecule?
Answer: reduces inflammation

Question: Which “% Inhibition” value [4] does the source give for `CCCCC/C=C\C/C=C\C/C=C\CCCCC(=O)NCc1ccc(O)c(OC)c1` [N-vanillyl-6Z,9Z,12Z-octadecatrienamide] here?
Answer: 100.7 ± 11.9%

Question: And the Writhes/10 minutes [5]?
Answer: 0.0 ± 0.0 Writhes/10 minutes

Question: And the reduction of inflammation [1]?
Answer: substantially similar reduction of inflammation

Question: What about the reduction of inflammation [2, 11] of the same molecule?
Answer: substantially similar reduction of inflammation

Question: And the reduction of inflammation [2, 12]?
Answer: substantially similar reduction of inflammation

Question: What about the reduction of inflammation [3] of the same molecule?
Answer: substantially similar reduction of inflammation

Question: Which results are given for `CC/C=C\C/C=C\C/C=C\CCCCCCCC(=O)NCc1ccc(O)c(OC)c1` [N-vanillyl-9Z,12Z,15Z-octadecatrienamide]?
Answer: % Inhibition [4]: 78.5 ± 31.9%; Writhes/10 minutes [5]: 0.4 ± 0.3 Writhes/10 minutes; analgesia [1]: produces analgesia; reduction of inflammation [1]: reduces inflammation; analgesia [2, 11]: producing analgesia; reduction of inflammation [2, 11]: reducing inflammation; analgesia [2, 12]: producing analgesia; reduction of inflammation [2, 12]: reducing inflammation; analgesia [3]: produces analgesia; reduction of inflammation [3]: reduces inflammation; % Animals Analgesic ([6]; Example X, 20 mg/kg oral in sesame oil, 1 hr post-dose, vehicle 0): 70%; % Animals Analgesic ([6]; Example X, 20 mg/kg oral in sesame oil, 2 hrs post-dose, vehicle 20): 30%; % Animals Analgesic ([6]; Example X, 20 mg/kg oral in sesame oil, 3 hrs post-dose, vehicle 0): 10%; % Animals Analgesic ([6]; Experiment A, 200 mg/kg oral in propylene glycol, 1 hr post-dose, vehicle 20): 80%; % Animals Analgesic ([6]; Experiment A, 200 mg/kg oral in propylene glycol, 2 hrs post-dose, vehicle 10): 40%; % Animals Analgesic ([6]; Experiment A, 200 mg/kg oral in propylene glycol, 3 hrs post-dose, vehicle 0): 30%; % Animals Analgesic ([6]; Experiment B, 200 mg/kg oral in propylene glycol, 1 hr post-dose, vehicle 0): 50%; % Animals Analgesic ([6]; Experiment B, 200 mg/kg oral in propylene glycol, 2 hrs post-dose, vehicle 20): 60%; % Animals Analgesic ([6]; Experiment B, 200 mg/kg oral in propylene glycol, 3 hrs post-dose, vehicle 0): 20%; % Animals Analgesic ([6]; Experiment C, 288 mg/kg oral in propylene glycol, 1 hr post-dose, vehicle 10): 50%; % Animals Analgesic ([6]; Experiment C, 288 mg/kg oral in propylene glycol, 2 hrs post-dose, vehicle 0): 10%; % Animals Analgesic ([6]; Experiment C, 288 mg/kg oral in propylene glycol, 3 hrs post-dose, vehicle 0): 0%

Question: Which results are given for `CC/C=C\C/C=C\C/C=C\CCCCCCCCCC(=O)NCc1ccc(O)c(OC)c1` [N-vanillyl-11Z,14Z,17Z-eicosatrienamide]?
Answer: Writhes/10 minutes [5]: 0.4 ± 0.3 Writhes/10 minutes; reduction of inflammation [1]: substantially similar reduction of inflammation; reduction of inflammation [2, 11]: substantially similar reduction of inflammation; reduction of inflammation [2, 12]: substantially similar reduction of inflammation; reduction of inflammation [3]: substantially similar reduction of inflammation; analgesic activity / potency compared with aspirin and opioids [7]: analgesic activity comparable to that of the opioids; undesirable narcotic side effects (tolerance, physical dependence) [8]: does not exhibit undesirable narcotic side effects

Question: For `CC(=O)Nc1ccc(O)cc1` [acetaminophen], which “activity in the RHP system” value [9] is on record?
Answer: little or no activity

Question: Which “activity in the RHP system” value [9] does the source give for `CC(=O)Oc1ccccc1C(=O)O` [aspirin] here?
Answer: little or no activity

Question: Which analgesia [10] does the source give for `COc1cc(CNC(=O)CCCCC=CC(C)C)ccc1O` [capsaicin, 8-methyl-N-vanillyl-6-nonenamide] here?
Answer: induces analgesia
